One assay deals with Sham or +BAT mice. The assay can be described thus: Oral gavage of sEH inhibitors in Sham or +BAT mice, in vivo cardiac hemodynamics. The following applies: daily oral gavage 0.5 mg/kg for 2 weeks, starting 10 weeks after surgery. The method, then:
Oral gavage of sEH inhibitors. C57BL/6 male mice (Charles River Laboratories) were fed a normal chow diet before and throughout the experiment. Sham and +BAT mice underwent daily oral gavage of sEH inhibitors beginning 10 weeks after the transplant or sham surgery. Mice underwent daily oral gavage with vehicle (Phosphate Buffer Saline [PBS]), or 25 mg/L AUDA in PBS (Cayman Chemicals #10007927), or 50 mg/L t-AUCB in PBS (Cayman Chemicals #16568). Mice were gavaged at 0.5 mg/kg daily for 14-16 days.
Cardiac pressure-volume analysis. Hemodynamic, systolic, and diastolic measurements performed as previously done. Briefly, mice were anesthetized with 1% isoflurane and a 1.4 F Millar catheter was advanced from the carotid artery into the left ventricle. LV pressure-volume dynamics were simultaneously measured over a wide range of heart rates (240-600 bpm). For the TNT experiments, since there were different baseline heart rates, data was normalized to the lowest heart rate. For the acute injection experiments, 12,13-diHOME, 9,10-diHOME, or 9-HODE were infused through the femoral vein (all at 1.5 μg/kg). All pressure-volume loop parameters were calculated using PV loop analysis software module for Lab Chart on ADInstruments. […]

For assay [1], the system named is Wild-type C57BL/6 male mice. Put plainly: Acute injection, in vivo cardiac hemodynamics (pressure-volume analysis) in wild-type mice. The note with it: acute injection via femoral vein, 1.5 μg/kg; compared to mice injected with saline. An excerpt:
(§1) Cardiac pressure-volume analysis. Hemodynamic, systolic, and diastolic measurements performed as previously done. Briefly, mice were anesthetized with 1% isoflurane and a 1.4 F Millar catheter was advanced from the carotid artery into the left ventricle. LV pressure-volume dynamics were simultaneously measured over a wide range of heart rates (240-600 bpm). For the TNT experiments, since there were different baseline heart rates, data was normalized to the lowest heart rate. For the acute injection experiments, 12,13-diHOME, 9,10-diHOME, or 9-HODE were infused through the femoral vein (all at 1.5 μg/kg). All pressure-volume loop parameters were calculated using PV loop analysis software module for Lab Chart on ADInstruments.
Both +BAT and exercise improved cardiac function in mice and increased circulating 12,13-diHOME. To determine if 12,13-diHOME was responsible for the improved cardiac function in +BAT and exercise-trained mice, mice were acutely injected with 12,13-diHOME and in vivo cardiac hemodynamics were measured. Acute treatment of 12,13-diHOME improved systolic function (FIG. 3A; FIG. 8A) and diastolic function (FIG. 3B; FIG. 8B) compared to mice injected with saline. There was no effect of 9,10-diHOME or 9-HODE to alter systolic (FIG. 3A; FIG. 8A) or diastolic function (FIG. 3B; FIG. 8B).

Assay [2] deals with isolated cardiomyocytes. Put plainly: Seahorse bioanalyzer respiration, wild-type cardiomyocytes. Type of assay: cell-based, mice. How it is done:
(§2) Seahorse bioanalyzer. Cardiomyocytes were isolated from 12-24 week old male C57BL/6 male (Charles river) or NOS1^−/− mice (B6; 129S4-Nos1^tm1Pth/J; stock no. 002633; Jackson Labs), chow fed mice. Isolated cardiomyocytes (25,000 per well) were seeded onto laminin-coated Seahorse Plates (Agilent) according to standard protocols. Cells were treated for 1 h with 10 μM 12,13-diHOME or were untreated. The oxygen-consumption rates (OCR; indicating mitochondrial respiration) and extracellular acidification rates (ECAR; indicating glycolysis rate) were monitored in a Seahorse XF24 instrument using the standard protocol of 3-min mix, 2-min wait and 3-min measure. Carbonyl cyanide-p-trifluoromethoxy-phenyl-hydrazon (FCCP; 2 μM) was used to determine the cells maximal respiratory capacity by allowing the electron transport chain to function at its maximal rate (maximal respiratory capacity is derived by subtracting non-mitochondrial respiration from the FCCP rate). Oligomycin (a complex V inhibitor; 2 μM) was used to derive ATP-linked respiration (by subtracting the oligomycin rate from baseline cellular OCR) and proton leak respiration (by subtracting non-mitochondrial respiration from the oligomycin rate). AntimycinA/Roteone (mitochondrial inhibitors; 0.5 μM) was used to determine non-mitochondrial respiration. For mechanistic experiments, cells were treated for 1 h with tetracaine (specific RyR inhibitor; 1 mM), 2,3-butanedione monoxime (BDM; myosin-ATPase inhibitor; […]) and nifedipine (L-type calcium channel inhibitor; 10 μM) were used. Data from wells of the same treatment group were averaged together and analyzed directly using Waves software. For the normalization of respiration to protein content, cells were lysed in RIPA buffer and protein concentration was measured by Bradford assay.

The test system of another assay is NOS1^−/− mice. Put plainly: Acute injection of 12,13-diHOME, in vivo cardiac hemodynamics in NOS1−/− mice.
Text: as §1
Next, the mechanism through which 12,13-diHOME modulates cardiomyocyte function and respiration was investigated. It was shown that nitric oxide (NO) production via NO synthase type 1 (NOS1) is essential for the beneficial effects of exercise to the heart. Since +BAT had similar effects on the heart as exercise, 12,13-diHOME can function through a similar mechanism. Mice deficient in NOS1 (NOS1^−/−) were acutely injected with 12,13-diHOME and in vivo cardiac hemodynamics were measured. […] In addition, 12,13-diHOME had no effect on NOS1^−/− cardiomyocyte peak shortening, Ca^2+ transients, or kinetics (FIGS. 5C-5F).

Another assay relates to NOS1^−/− cardiomyocyte. The assay can be described thus: Cardiomyocyte sarcomere function and calcium transient, NOS1−/− cardiomyocytes. The following applies: vs PBS. Type of assay: cell-based, mice. How it is done:
(§3) Measurements of Cardiomyocyte Sarcomere Function and Calcium Transient. Cardiomyocytes were isolated from wild-type C57BL/6 male mice (Charles River) or NOS1^−/− mice (B6; 129S4-Nos1^tm1Plh/J; stock no. 002633; Jackson Labs). Unloaded cardiomyocyte function (sarcomere shortening, kinetics and Ca^2+ transients) were measured as previously performed. In brief, hearts were rapidly excised and cannulated on a constant-flow Langendorff perfusion apparatus, and perfused via the aorta at 37° C. with buffer containing (in mM) 113 NaCl, 4.7 KCl, 0.6 KH2PO4, 0.6 Na2HPO4, 1.2 MgSO4, 12.4 BMD, 12 NaHCO3, 10 KHCO3, 10 HEPES 1M, and 30 Taurine, followed by digestion with liberase enzyme (0.25 mg/ml). After perfusion and digestion ventricles were removed and minced (under sterile conditions), filtered, and equilibrated with 1 mM CaCl2 and FBS at room temperature. Cardiomyocytes were plated on laminin-coated glass slides and placed on the stage of an inverted Olympus IX-71 microscope and superfused (˜1 ml/min at 30° C.) with contractile buffer containing (in mM, pH 7.4) 4 KCl, 131 NaCl, 1 MgCl2, 10 HEPES, 1 CaCl2), and 10 glucose. The cells were visualized using a 40× objective and field-stimulated at 1 Hz for 3 ms using a Myopacer Field-Stimulator system. Sarcomere length, time to contraction/relaxation and contraction/relaxation kinetics will were recorded using the IonOptix video imaging system and a Myocam-S Digital charge-coupled device camera. Changes in intracellular Ca^2+ levels were monitored using (0.5 μM) Fura-2 dual-excitation (360/380 nm) single emission (510 nm) ratiometric imaging. Measurements were taken at baseline and with acute superfusion of 10 μM 12,13-diHOME.

The subject of assay [3] is cardiomyocytes constitutively expressing luciferase. The assay can be described thus: Cardiomyocyte fatty acid uptake (FFA-SS-Luc). Type of assay: cell-based, mice. The note with it: 10 μM, 10 μM FFA-SS-Luc, after 30 min of incubation; vs vehicle. How it is done:
Cardiomyocyte Fatty Acid Uptake. Cardiomyocytes were isolated from 12-24 week old male LucTg (FVB-Tg(CAG-luc-GFP)L2G85Chco/J; stock no. 008450; Jackson Labs) chow-fed mice. Isolated cardiomyocytes (50,000 cells per well) were seeded onto laminin-coated 12-well plates according to standard protocols in FBS-free media for one hour. After one hour of serum-starve, 10 μm FFA-SS-Luc (Intrace Medical) conjugated probe was added to each well with or without 10 μM 12,13-diHOME directly before imaging using the IVIS Spectrum for […] optical imaging using sequential 3 min exposures for 30 min. Data were analyzed using Living Image Software, and movies were assembled from individual images using ImageJ.
Previous studies have indicated a role for 12,13-diHOME to increase fatty acid uptake. To test whether 12,13-diHOME increases fatty acid uptake in cardiomyocytes, cardiomyocytes constitutively expressing luciferase in vitro were isolated. Cells were treated with FFA-SS Luc, a fatty acid conjugated to luciferin, in the presence of 12,13-diHOME or a vehicle control.

The test system of a further assay is NOS1^−/− cardiomyocytes. Put plainly: Seahorse bioanalyzer respiration, NOS1−/− cardiomyocytes. Type of assay: cell-based, mice. The note with it: vs vehicle. The method, then: as §2
In assay [4] the test system is isolated cardiomyocytes. The assay can be described thus: Cardiomyocyte sarcomere function and calcium transient, wild-type cardiomyocytes. The note with it: acute superfusion of 10 μM; vs vehicle. Type of assay: cell-based, mice. The method, then: as §3
Where [5] appears, read: incubation with RyR2 inhibitor tetracaine.

The record followed here is patent US20230279372A1, “METHODS TO CONTROL LIPOKINE CONCENTRATIONS AND USES THEREOF” (Ohio State Innovation Foundation, priority 2020, published 2023).

With `O=C(O)CCCCCCCCCCCNC(=O)NC12CC3CC(CC(C3)C1)C2` [AUDA], the “cardiac function (systolic and diastolic) of +BAT vs Sham mice in the presence of sEH inhibitor” value with Sham or +BAT mice is “no effect of +BAT to improve cardiac function”.
For `CCCCC/C=C\CC(O)C(O)CCCCCCCC(=O)O` (stereo not drawn) [9,10-diHOME], in assay [1], the diastolic function result is “no effect” and the systolic function entry is “no effect”.
With `CCCCNc1ccc(C(=O)OCCN(C)C)cc1` [tetracaine, reference compound], in the assay with isolated cardiomyocytes [2] (tetracaine 1 mM for 1 h, independent of 12,13-diHOME), the maximal respiration result is listed as “decrease”.
`CCCCC/C=C\C=C\C(O)CCCCCCCC(=O)O` (stereo not drawn) [9-HODE]: in assay [1], the diastolic function entry is on record as “no effect” and the systolic function result is given as “no effect”.
With `CCCCCC(O)C(O)C/C=C\CCCCCCCC(=O)O` (stereo not drawn) [12,13-diHOME], in the assay with NOS1^−/− mice, the diastolic function entry is recorded as “no effect” and the systolic function result is “no effect”. Also, in the assay on NOS1^−/− cardiomyocyte, the “Ca2+ transients” value was “no effect”; the “kinetics (maximal velocity of shortening and relengthening)” value is given as “no effect”; the peak shortening result is listed as “no effect”. Further, the fatty acid uptake entry in assay [3] was “significantly elevated”. Besides, in the assay on NOS1^−/− cardiomyocytes, the “basal oxygen consumption rates (OCR)” value is reported as “no effect”, the maximal respiratory capacity entry is “no effect” and the non-mitochondrial respiration entry is on record as “no effect”. In addition, in the assay with isolated cardiomyocytes [4], the “Ca2+ transient amplitude” value is listed as “increase”, the “maximal velocity of relengthening (−dL/dt)” value is reported as “greater”, the “maximal velocity of shortening (+dL/dt)” value was “greater” and the peak cardiomyocyte shortening result is recorded as “increased”. Also, in assay [1], the diastolic function entry is “improved” and the systolic function result is recorded as “improved”. In the assay on isolated cardiomyocytes [2] (10 μM for 1 h, vs vehicle), the “basal oxygen consumption rates (OCR)” value was “increased”, the maximal respiratory capacity entry is given as “increased” and the non-mitochondrial respiration result is “increased”. Moreover, in the assay with isolated cardiomyocytes [2] (in the presence or absence of RyR2 inhibitor tetracaine), the “basal OCR” value is given as “increased”. In the assay on isolated cardiomyocytes [2] (setting [5]), the “effect of 12,13-diHOME on maximal respiration” value was “blunted” and the “effect of 12,13-diHOME on non-mitochondrial respiration” value is recorded as “blunted”. In the assay with isolated cardiomyocytes [2] (with myosin inhibitor BDM), the “effect of 12,13-diHOME on basal OCR under myosin inhibition” value is “did not prevent”, the “effect of 12,13-diHOME on maximal respiration under myosin inhibition” value is recorded as “did not prevent” and the “effect of 12,13-diHOME on non-mitochondrial respiration under myosin inhibition” value is given as “prevented the increase”.
